The test relates to HT-1080 (ATCC, CCL-121) cells. Briefly: HT-1080 cell viability assay with ferroptosis inducer RSL3 (Cell Titer-Glo). The test is classed as cell-based. The following applies: Homo sapiens; HT-1080 cells treated with RSL3; 3-fold, 10-point dilution, 1.1 μM highest concentration; Table 2; read-out: EC50 (nM), ferroptosis inhibitory activity. A digest of the protocol:
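EC50 was derived by sigmoidal dose-response regression of CellTiter-Glo luminescence viability, expressed relative to untreated wells. Compounds were tested in a ten-point, threefold dilution series (highest 1.1 μM) in the presence of the ferroptosis inducer RSL3. HT-1080 cells had been seeded at 6000 per well and grown overnight first.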
For orientation: Cellular ATP, detected with luciferase, serves as a proxy for viable cell number.
A word on the EC50: it is the concentration needed to bring the measured effect to its halfway point. On to `CN1CCN(CC(=O)N2CCc3cc(Nc4ccc(N5CCCCC5)cc4)ccc3C2)CC1` [Compound 103, 2-(4-methylpiperazin-1-yl)-1-(6-((4-(piperidin-1-yl)phenyl)amino)-3,4-dihydroisoquinolin-2(1H)-yl)ethan-1-one], for which the concentration for a half-maximal effect (EC50) lay within 100 to 1000 nM.
Take `c1ccc(Nc2ccc3c(c2)CCNC3)cc1` [Compound 104, N-phenyl-1,2,3,4-tetrahydroisoquinolin-6-amine]: the concentration giving a half-maximal response (EC50) lay in the range of 0.1 to 100 nM.
On to `CCN1CCc2cc(Nc3ccccc3)ccc2C1` [Compound 105, 2-ethyl-N-phenyl-1,2,3,4-tetrahydroisoquinolin-6-amine], for which the concentration giving a half-maximal response (EC50) was in the range of 0.1 to 100 nM.
For `CC(=O)N1CCc2cc(Nc3ccccc3)ccc2C1` [Compound 106, 1-(6-(phenylamino)-3,4-dihydroisoquinolin-2(1H)-yl)ethan-1-one], the EC50 lay within 0.1 to 100 nM.
`CN1CCN(CC(=O)N2CCc3cc(Nc4ccccc4)ccc3C2)CC1` [Compound 107, 2-(4-methylpiperazin-1-yl)-1-(6-(phenylamino)-3,4-dihydroisoquinolin-2(1H)-yl)ethan-1-one]: the EC50 was in the range of 0.1 to 100 nM.
For the molecule `CN1CCN(CC(=O)N2CCc3cc(Nc4ccc(N5CCC(C(F)(F)F)CC5)c(F)c4)ccc3C2)CC1` [Compound 108, 1-(6-((3-fluoro-4-(4-(trifluoromethyl)piperidin-1-yl)phenyl)amino)-3,4-dihydroisoquinolin-2(1H)-yl)-2-(4-methylpiperazin-1-yl)ethan-1-one], the concentration giving a half-maximal response (EC50) fell in the range of 0.1 to 100 nM.
Then `CN1CC(=O)N(C)c2ccc(Nc3ccc(N4CCC(C(F)(F)F)CC4)cc3)cc21` [Compound 109, 1,4-dimethyl-6-((4-(4-(trifluoromethyl)piperidin-1-yl)phenyl)amino)-3,4-dihydroquinoxalin-2(H)-one], with 0.1 to 100 nM.
For `Cn1c(=O)c(=O)n(C)c2cc(Nc3ccc(N4CCC(C(F)(F)F)CC4)cc3)ccc21` [Compound 110, 1,4-dimethyl-6-((4-(4-(trifluoromethyl)piperidin-1-yl)phenyl)amino)-1,4-dihydroquinoxaline-2,3-dione], the EC50 lay in the range of 0.1 to 100 nM.
With `Cn1c(=O)cnc2cc(Nc3ccc(N4CCC(C(F)(F)F)CC4)cc3)ccc21` [Compound 111, 1-methyl-6-((4-(4-(trifluoromethyl)piperidin-1-yl)phenyl)amino) quinoxalin-2(1H)-one], the half-maximal effective concentration (EC50) is 0.1 to 100 nM.
As to `CN1Cc2cc(Nc3ccc(N4CCC(C(F)(F)F)CC4)cc3)ccc2N(C)C1=O` [Compound 112, 1,3-dimethyl-6-((4-(4-(trifluoromethyl)piperidin-1-yl)phenyl)amino)-3,4-dihydroquinazolin-2(1H)-one], the EC50 fell in the range of 0.1 to 100 nM.
Take `Cc1nc(=O)n(C)c2ccc(Nc3ccc(N4CCC(C(F)(F)F)CC4)cc3)cc12` [Compound 113, 1,4-dimethyl-6-((4-(4-(trifluoromethyl)piperidin-1-yl)phenyl)amino) quinazolin-2(1H)-one]: the EC50 fell in the range of 0.1 to 100 nM.
As for `CN1CCOc2cc(Nc3ccc(N4CCC(C(F)(F)F)CC4)cc3)ccc21` [Compound 114, 4-methyl-N-(4-(4-(trifluoromethyl)piperidin-1-yl)phenyl)-3,4-dihydro-2H-benzo[b][1,4]oxazin-7-amine], the EC50 fell in the range of 0.1 to 100 nM.
Regarding `CC1CCN(c2ccc(Nc3ccc4c(c3)ncc(=O)n4C)cc2)CC1` [Compound 115, 1-methyl-6-((4-(4-methylpiperidin-1-yl)phenyl)amino)quinoxalin-2(1H)-one], the concentration giving a half-maximal response (EC50) was in the range of 0.1 to 100 nM.
Then `CCn1c(=O)cnc2cc(Nc3ccc(N4CCC(C(F)(F)F)CC4)cc3)ccc21` [Compound 116, 1-ethyl-6-((4-(4-(trifluoromethyl)piperidin-1-yl)phenyl)amino) quinoxalin-2(1H)-one], with 0.1 to 100 nM; and `CCn1c(=O)cnc2cc(Nc3ccc(N4CCC(C)CC4)cc3)ccc21` [Compound 117], with 0.1 to 100 nM; and `Cc1cc(=O)oc2cc(Nc3ccc(C(C)(C)C)cc3)ccc12` [Compound 118, 7-((4-(tert-butyl)phenyl)amino)-4-methyl-2H-chromen-2-one], with 0.1 to 100 nM.
Consider `Cc1cc(=O)oc2cc(Nc3ccc(N4CCC(C(F)(F)F)CC4)cc3)ccc12` [Compound 119, 4-methyl-7-((4-(4-(trifluoromethyl)piperidin-1-yl)phenyl)amino)-2H-chromen-2-one], for which the half-maximal effective concentration (EC50) fell in the range of 0.1 to 100 nM.
For `CC(C)(C)c1ccc(Nc2ccc3oc(=O)ccc3c2)cc1` [Compound 120, 6-((4-(tert-butyl)phenyl)amino)-2H-chromen-2-one], the EC50 was 0.1 to 100 nM.
Then `CC(C)(C)c1ccc(Nc2ccc3c(CCN)cc(=O)oc3c2)cc1` [Compound 121, 4-(2-aminoethyl)-7-((4-(tert-butyl)phenyl)amino)-2H-chromen-2-one], with 0.1 to 100 nM; and `NCCc1cc(=O)oc2cc(Nc3ccc(N4CCC(C(F)(F)F)CC4)cc3)ccc12` [Compound 122, 4-(2-aminoethyl)-7-((4-(4-(trifluoromethyl)piperidin-1-yl)phenyl)amino)-2H-chromen-2-one], with 0.1 to 100 nM.
Consider `O=c1ccc2cc(Nc3ccc(N4CCC(C(F)(F)F)CC4)cc3)ccc2o1` [Compound 123, 6-((4-(4-(trifluoromethyl)piperidin-1-yl)phenyl)amino)-2H-chromen-2-one], for which the EC50 lay within 0.1 to 100 nM.
For `CC(C)(C)c1ccc(Nc2ccc3cc(CCN)c(=O)oc3c2)cc1` [Compound 124, 3-(2-aminoethyl)-7-((4-(tert-butyl)phenyl)amino)-2H-chromen-2-one], the concentration for a half-maximal effect (EC50) is 0.1 to 100 nM.
Then `NCCc1cc2ccc(Nc3ccc(N4CCC(C(F)(F)F)CC4)cc3)cc2oc1=O` [Compound 125, 3-(2-aminoethyl)-7-((4-(4-(trifluoromethyl)piperidin-1-yl)phenyl)amino)-2H-chromen-2-one], with 0.1 to 100 nM; and `Cc1cc2c(C)cc(=O)oc2cc1Nc1ccc(N2CCC(C(F)(F)F)CC2)cc1` [Compound 126, 4,6-dimethyl-7-((4-(4-(trifluoromethyl)piperidin-1-yl)phenyl)amino)-2H-chromen-2-one], with 0.1 to 100 nM.
Turning to `CN1C(=O)CCc2cc(Nc3ccc(N4CCC(C(F)(F)F)CC4)cc3)ccc21` [Compound 127, 1-methyl-6-((4-(4-(trifluoromethyl)piperidin-1-yl)phenyl)amino)-3,4-dihydroquinolin-2(1H)-one], the EC50 fell in the range of 0.1 to 100 nM.
With `CN1C(=O)OCc2cc(Nc3ccc(N4CCC(C(F)(F)F)CC4)cc3)ccc21` [Compound 128, 1-methyl-6-((4-(4-(trifluoromethyl)piperidin-1-yl)phenyl)amino)-1,4-dihydro-2H-benzo[d][1,3]oxazin-2-one] the figure was 0.1 to 100 nM; with `COC1(C(F)(F)F)CCN(c2ccc(Nc3ccc4c(c3)OCC(=O)N4C)c(C)c2)CC1` [Compound 129, 7-((4-(4-methoxy-4-(trifluoromethyl)piperidin-1-yl)-2-methylphenyl)amino)-4-methyl-2H-benzo[b][1,4]oxazin-3(4H)-one], 0.1 to 100 nM.
Consider `Cc1cc(N2CCC(O)(C(F)(F)F)CC2)ccc1Nc1ccc2c(c1)OCC(=O)N2C` [Compound 130, 7-((4-(4-hydroxy-4-(trifluoromethyl)piperidin-1-yl)-2-methylphenyl)amino)-4-methyl-2H-benzo[b][1,4]oxazin-3(4H)-one], for which the EC50 is 0.1 to 100 nM.
For the molecule `COc1cc(Nc2ccc3c(c2)OCC(=O)N3)cnc1N1CCC(C(F)(F)F)CC1` [Compound 131, 7-((5-methoxy-6-(4-(trifluoromethyl)piperidin-1-yl)pyridin-3-yl)amino)-2H-benzo[b][1,4]oxazin-3(4H)-one], the EC50 was in the range of 0.1 to 100 nM.
With `Cc1cc(Nc2cc(F)c3c(c2)OCC(=O)N3C)ccc1N1CC(C)OC(C)C1` (centres unmarked) [Compound 132, 7-((4-(2,6-dimethylmorpholino)-3-methylphenyl)amino)-5-fluoro-4-methyl-2H-benzo[b][1,4]oxazin-3(4H)-one], the EC50 fell in the range of 0.1 to 100 nM.
For `CC1CN(c2ccc(Nc3ccc4nnn(C)c4c3)cc2)CC(C)O1` (centres unmarked) [Compound 133, N-(4-(2,6-dimethylmorpholino)phenyl)-1-methyl-1H-benzo[d][1,2,3]triazol-6-amine], the EC50 lay in the range of 100 to 1000 nM.
For the molecule `CN(CC(F)(F)F)c1ccc(Nc2ccc3c(c2)OCC(=O)N3C)cc1` [Compound 134], the half-maximal effective concentration (EC50) lay within 0.1 to 100 nM.
Turning to `CC(C)(C)c1ccc(Nc2ccc3c(c2)OCC(=O)N3)cc1` [Compound 135, 7-((4-(tert-butyl)phenyl)amino)-2H-benzo[b][1,4]oxazin-3(4H)-one], the concentration giving a half-maximal response (EC50) is 0.1 to 100 nM.
Then `O=C1COc2cc(Nc3cc(F)c(N4CCC(C(F)(F)F)CC4)c(F)c3)ccc2N1` [Compound 136, 7-((3,5-difluoro-4-(4-(trifluoromethyl)piperidin-1-yl)phenyl)amino)-2H-benzo[b][1,4]oxazin-3(4H)-one], with 0.1 to 100 nM; and `CN1C(=O)NCc2cc(Nc3ccc(N4CCC(C(F)(F)F)CC4)cc3)ccc21` [Compound 137, 1-methyl-6-((4-(4-(trifluoromethyl)piperidin-1-yl)phenyl)amino)-3,4-dihydroquinazolin-2(1H)-one], with 0.1 to 100 nM.
For the molecule `Cc1cc(Nc2ccc3c(c2)OCC(=O)N3)ccc1N1CC(C)OC(C)C1` (centres unmarked) [Compound 138, 7-((4-(2,6-dimethylmorpholino)-3-methylphenyl)amino)-2H-benzo[b][1,4]oxazin-3(4H)-one], the concentration giving a half-maximal response (EC50) lay within 0.1 to 100 nM.
For the molecule `CC1CN(c2ccc(Nc3ccc4c(c3)OC(C)C(=O)N4)cc2)CC(C)O1` (centres unmarked) [Compound 139, 7-((4-(2,6-dimethylmorpholino)phenyl)amino)-2-methyl-2H-benzo[b][1,4]oxazin-3(4H)-one], the EC50 is 0.1 to 100 nM.
Then `CC1CN(c2ccc(Nc3ccc4c(c3)OCC(=O)N4)cc2)CC(C)O1` (centres unmarked) [Compound 140, 7-((4-(2,6-dimethylmorpholino)phenyl)amino)-2H-benzo[b][1,4]oxazin-3(4H)-one], with 0.1 to 100 nM.

These data come from US20240327393A1 (SIRONAX LTD., priority 2021, published 2024).
